Target: Apoptosis regulator Bcl-2 (Homo sapiens, UniProt P10415)
Experiment: Fluorescence Polarization Assay
Conditions: pH 7.4; 23 °C
Procedure: FPAs were performed using various concentrations of GST-Bcl-2 family proteins, incubated with FITC-conjugated peptide substrates in the presence of inhibitor compound. […] IC50 was determined by fitting the experimental data to a sigmoidal dose-response nonlinear regression model (SigmaPlot 10.0.1, Systat Software, Inc., San Jose, CA). Data reported are the mean of three independent experiments.

Chain of Apoptosis regulator Bcl-2 (P10415 whole entry): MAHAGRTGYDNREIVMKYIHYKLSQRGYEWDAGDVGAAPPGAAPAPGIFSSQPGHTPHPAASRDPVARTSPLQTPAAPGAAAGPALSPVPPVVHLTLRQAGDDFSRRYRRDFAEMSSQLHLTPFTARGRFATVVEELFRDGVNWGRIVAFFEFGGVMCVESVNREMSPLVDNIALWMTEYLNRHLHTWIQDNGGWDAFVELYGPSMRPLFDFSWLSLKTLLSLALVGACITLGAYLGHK

Work on Cc1cc2c(C(C)C)c(O)c(O)cc2c(O)c1-c1c(C)cc2c(C(C)C)c(O)c(O)cc2c1O [Apogossypol] yielded an IC50 of 4.3 µM.

From BindingDB's records for doi:10.1021/jm900472s (Burnham Institute For Medical Research, 2009)
